How the values were obtained:
[1] = tested on: Glial cells from a human brain; experiment: Cellular ATP production in cultivated glial cells (bioluminescence); format: cell-based; settings: NDGA 0.5% w/v in culture
Procedure: Glial cells from a human brain were cultivated by monolayering on Petri dishes. Cellular ATP production was measured using bioluminescent methods (luciferin, luciferase and photomultiplier detection).

[2] = tested on: Mitochondria from a human liver; experiment: Chemiluminescent probe of superoxide and hydroxyl radicals in isolated mitochondria; format: biochemical
Description: Mitrochondria from a human liver were freshly isolated and maintained in a culture environment so that normal respiration and ATP production occurred. Special chemical probes, e.g. luminol-carnitine derivatives, were pipetted into the mitochondria culture media. Uptake of the probes occurred in the mitrochondrial inner membrane where oxygen metabolism and toxic oxygen byproducts are produced. The probes emitted chemiluminescent light in proportion to superoxide (O2^-.) and hydroxyl radicals (.OH). This light was measured by a photomultiplier, and the results were quantified and recorded.

[3] = tested on: lipid hydroperoxides in the skin; format: in vivo, human
Description: FIG. 3 is a graph showing the results of a double blind study set forth in Example 6, wherein a composition containing 2% NDGA by weight was applied topically to the skin of the foreheads of human volunters; and
Turning to FIG. 3, the results of a double-blind time study using a composition containing 2% by weight NDGA can be seen. This composition was the same as the composition set forth in Example 3 with the exception that the percentage of water was reduced to 86.5%. Starting at time zero, 10 milliliters of this cream was vigorously applied topically onto the skin of the forehead of a volunteer. Measurements were taken at different intervals using non-invasive, reflective, near-infrared spectroscopy. The methods of non-invasive, reflective, near infrared spectroscopy used in this example are set forth in detail in R. Lippman, "Rapid in vivo Quantification and Comparision of Hydroperoxides and Oxidized Collagen in Aging Mice, Rabbits and Man", Experimental Gerontology, Vol. 20, pp. 1-5, 1985, which is incorporated herein by this reference.

Uppsala mice = Uppsala mice fed lab chow containing 0.5 weight% NDGA, observation of aging and skin wrinkling; format: in vivo
Description: In one aspect of practice of techniques of this invention, the compounds of formula (1) are useful in retarding the aging phenomena of skin wrinkling. In this example, twenty four (24) Uppsala mice were fed standard lab chow (provided by Anticimax of Sodertalje, Sweden) containing 0.5 weight% NDGA ad libitum from the twelfth to thirty-sixth month of their lifespan.
This increased wrinkling is indicative of collagen and elastin hardening and cross-linking via the conversion of imide to amide bonds as discussed above.

[4] = tested on: microvascular lipid hydroperoxides; experiment: Pharmacokinetic time-course (double-blind) study of single oral doses of NDGA, microvascular lipid hydroperoxides; format: in vivo, human
Procedure: Placebos were given to two (2) other volunteers. Using the above referenced non-invasive technique called reflective, near-infrared spectroscopy, changes in the microvascular concentrations of lipid hydroperoxides were monitored during 8 hour test periods. […] Subjects received single doses of NDGA and placebos orally, respectively.

[5] = isolated human liver mitochondria

CC(Cc1ccc(O)c(O)c1)C(C)Cc1ccc(O)c(O)c1 (stereo not drawn) [NDGA, 1,4-bis(3,4-dihydroxyphenyl)-2,3-dimethylbutane]
steady state ATP production [1]: increase in steady state ATP production was observed
lifespan of the human mitochondria [2, 5]: Increased lifespan of the human mitochondria
toxic oxygen byproducts [2, 5]: significantly reduced toxic oxygen byproducts
steady state light (chemiluminescence of superoxide and hydroxyl radicals) ([2]; luminol-carnitine derivative probes): significantly reduced the steady state light
facial skin and skin unsaturated lipids, damage ([3]; 2% by weight NDGA cream topically on forehead): facial skin and skin unsaturated lipids are preserved, and damage is prevented
return to normal level of lipid hydroperoxides ([3]; 2% by weight NDGA cream topically, after approximately 4 hours): 190 micromole/cm^2
lipid hydroperoxides in skin layers and microvascularization, level decreased to ([3]; 2% by weight NDGA cream, 10 milliliters topically on forehead, after about one hour, from about 190): ~151 micromole/cm^2 skin
skin wrinkling, control mice versus NDGA fed mice (Uppsala mice; 0.5 weight% NDGA in chow): greater skin wrinkling in control mice versus NDGA fed mice
visual appearance (youthful and healthy) versus control mice (Uppsala mice; 0.5 weight% NDGA in chow from twelfth month, at 26 months of age): visually more youthful and healthy
NDGA fed mice still living (Uppsala mice; 24 mice at start, 0.5 weight% NDGA in chow, one control mouse of 6 remaining): four
reduction of levels of microvascular lipid hydroperoxides ([4]; oral, single doses 50, 75, 100 and 200 mg, during the 4 to 8 hour study periods): at least 15%
neutralization of toxic byproducts of oxygen metabolism, i.e. lipid hydroperoxides (conclusion) ([4]; when taken at regular intervals of at least 6 hours, 3 times daily): effective neutralizer of toxic byproducts of oxygen metabolism

From patent publication US4695590A, “Method for retarding aging” (California Health Technologies, priority 1986, dated 1987)
